Measured values taken from publication PMC7562719, “Discovery of a CNS penetrant small molecule SMN2 splicing modulator with improved tolerability for spinal muscular atrophy” (Scientific Reports, 2020).

Key:
Type in all cases: cell-based, human
[1] = test system: FOXM1ΔC; assay: qPCR of FOXM1ΔC variant in GM03813 fibroblasts; conditions: 24 h, 300% total target mRNA increase, 95% CI in brackets
Method: (§1) GM03813 fibroblasts, GM24468-derived MNs, NRK-49F, MDCK, CV-1, or NCMDF cells were plated at a density of 0.5 or 1.5 × 10^4, 4 × 10^4, 5 × 10^3, 5 × 10^3, 8 × 10^3, or 6 × 10^3 cells/well on 96-well plates, respectively. After approximately 6 h, the medium was added with the same volume of culture medium containing each compound at the concentration of 0.06, 0.2, 0.6, 0.2, and 6 µM. The final concentration of DMSO was adjusted to 0.1% in culture condition.
(§2) All cells were treated with above compounds for 24 h and washed once with Dulbecco’s Phosphate-Buffered Saline without Ca and Mg [D-PBS (–)] (Wako or Nakarai Tesque). In case of using GM03813 or GM24468-derived MNs, cell lysis and reverse transcription were carried out using SuperPrep Cell Lysis & RT Kit for qPCR in accordance with manufacturer’s recommendations (Toyobo, Japan). qPCR was performed using THUNDERBIRD Probe qPCR Mix (Toyobo). The final concentrations of primers and probes were adjusted to 0.4 µM and 0.15 µM, respectively (Supplementary Table 1). Cycle conditions were as follows; 95 °C for 1 min; followed by 40 cycles of denaturation at 95 °C for 15 s; annealing and elongation at 60 °C for 1 min in the ViiA7 RT-PCR system (Thermo Fisher Scientific). The copy numbers of each target were normalized to those of GAPDH.

[2] = test system: SMN2 splicing; assay: qPCR of SMN transcripts in motor neurons derived from SMA patient iPSCs (GM24468); conditions: iPSC-derived motor neurons (GM24468), 24 h
Method: GM24468 cells were differentiated to motor neurons (MNs) via a motor neuron progenitor (MNP) as previously reported. Briefly described, GM24468 were treated with a chemically defined neural medium, including DMEM/F12, Neurobasal medium at 1:1, 0.5% N2, 0.1% B27, 0.1 mM ascorbic acid (Sigma Aldrich, USA), 1 × GlutaMax, and 1 × penicillin/streptomycin. 3 µM CHIR99021 (Wako), 2 µM DMH1 (Sigma Aldrich) and 2 µM SB431542 (Wako) were added in the medium. The culture medium was changed every other day. GM24468 maintained under this condition for 6 days were induced into neuroepithelial progenitors (NEPs). NEPs were then dissociated and split with dispase (Stemcell technologies) and neural medium containing 0.1 µM RA (Sigma Aldrich), 0.5 µM Purmorphamine (Pur) (Merck, USA), 1 µM CHIR99021, 2 µM DMH1 and 2 µM SB431542. The medium was changed every other day. NEPs maintained under this condition for 6 days differentiated into OLIG2^+ MNPs. The OLIG2^+ MNPs were expanded with the same medium containing 1 µM CHIR99021, 2 µM DMH1, 2 µM SB431542, 0.1 µM RA, and 0.5 µM Pur, and split once a week. To induce MNs differentiation, OLIG2^+ MNPs cultured in suspension in the above neural medium with 0.5 µM RA and 0.1 µM Pur. The medium was changed every other day. OLIG2^+ MNPs under this condition for 6 days differentiated into MNX1^+ MNs. […]

[3] = test system: FOXM1a; assay: qPCR of FOXM1a variant in GM03813 fibroblasts; conditions: 24 h, 200% total target mRNA increase, 95% CI in brackets
Method: as §1, §2

[4] = test system: HTT mRNA; assay: qPCR of HTT transcripts in GM03813 fibroblasts; conditions: for Selectivity HTT /FL-SMN2: EC50 of HTT divided by EC1.5× of FL-SMN2; for EC50: Homo sapiens, Fibroblast, GM03813 fibroblasts, 24 h, 50% total HTT mRNA reduction, 95% CI in brackets
Method: as §1, §2
In order to elucidate splicing pattern of cryptic GALC and HTT transcripts, GM03813 cells were seeded at 5 or 15 × 10^3 cells/well in 96-well plates and incubated with TEC-1 or SMN-C3 (0.03, 0.1, 0.3, 0.1, 1 or 3 µM) for 6 h under final concentration of 200 µg/ml CHX. For FOXM1, GM03813 fibroblasts were plated at 1.5 × 10^4 cells/well in 96-well plate and incubated with TEC-1, SMN-C3 or risdiplam (0.03, 0.1, 0.3 and 1 µM) for 24 h.
GM03813 fibroblasts and GM24468-derived MNs were seeded at 1.5 × 10^4 and 4 × 10^4 cells/well in 96-well plates and were treated with TEC-1 or SMN-C3 for 72 h at the concentration of 0.01, 0.03, 0.1, 0.3, 1, or 3 µM. After 72 h exposure of compound, GM24468 derived MNs and GM03813 fibroblasts were washed once with D-PBS (-), lysed with RIPA buffer (Wako) containing cOmplete (Sigma-Aldrich) and PhosSTOP (Sigma-Aldrich). The lysates were spun at 15,000 rpm for 15 min at 4 °C, and the supernatants were collected. The protein concentration was quantified with BCA kit (Wako). The lysates, adjusted to have the same protein amount, were mixed with NuPAGE LDS sample buffer containing DTT and heated at 95 °C for 5 min. Except for HTT detection, each sample (2 µg total protein/lane) was loaded Perfect NT Gel 7.5–15% gel (DRC, Japan) and run at 150 V for 60–70 min with Tris/glycine/SDS running buffer (BIO-RAD, USA). The proteins were transferred from the gel to Immobilon-P PVDF Membrane (Millipore, USA) with a transfer solution comprising 10% methanol and 1 × Novex Tris-glycine transfer buffer at 25 V for 180–240 min using Criterion blotter (BIO-RAD). In the case of HTT detection, each sample (2 µg total protein/lane) was loaded to Perfect NT Gel 7.5–15% gel and run at 150 V for 60–70 min with NuPAGE Tris–Acetate SDS Running Buffer. The proteins were transferred with a transfer solution comprising 10% methanol and 1 × Novex Tris-glycine transfer buffer at 25 V for 960 min using Criterion blotter. The membranes were blocked with Pierce Protein free T20 blocking reagent for 1 h and subsequently incubated with primary antibodies diluted with Can Get Signal Solution 1 (Toyobo) at room temperature for 1 h. Anti-SMN monoclonal antibody (MoAb)[15] […]

[5] = test system: FL-SMN2 mRNA; assay: qPCR of FL-SMN2 transcripts in SMA type II fibroblasts (GM03813); conditions: 24 h, 50% total FL-SMN2 mRNA increase, normalized to GAPDH, 95% CI in brackets
Method: as §1, §2

| SMILES | EC4.0× FOXM1ΔC [1] | concentration showing clear ability to modulate SMN2 splicing [2] | EC3.0× FOXM1a [3] | Selectivity HTT /FL-SMN2 [4] | inclusion of the HTT cryptic exon or reduction of HTT at the mRNA and full-length protein levels ([4]; GM03813 cells) | EC50 [4] | EC1.5× FL-SMN2 [5] | SMN2 splicing in motor neurons ([2]; similar effects to TEC-1) |
| --- | --- | --- | --- | --- | --- | --- | --- | --- |
| Cc1cn2nc(-c3nc4ccc(N5CCN(C)CC5)cc4c(=O)[nH]3)cc2c(C)n1 [TEC-1, 2-(4,6-dimethylpyrazolo[1,5-a]pyrazin-2-yl)-6-(4-methylpiperazin-1-yl)quinazolin-4(3H)-one] | 1311.6 (864.7–2285.8) nM | 30 nM | 1096.8 (809.7–1552.2) nM | > 61 | did not substantially impact | > 3000 nM | 49.1 (22.7–109.4) nM | – |
| CCN1CCC(c2cc(C)c3nc(-c4cc5c(C)nc(C)cn5n4)cc(=O)n3c2)CC1 [SMN-C3, reference compound] | 298.5 (248.8–355.8) nM | – | 280.3 (211.4–377.7) nM | 4 | – | 547 nM | 122.1 (74.5–221.7) nM | modulates SMN2 splicing |
